The values that follow come from article PMC10877733, “Discovery and Characterization of VU0542270, the First Selective Inhibitor of Vascular Kir6.1/SUR2B KATP Channels” (Molecular Pharmacology, 2024).

As usually defined, the IC50 is the concentration at which inhibition is half-maximal.

Structures are written as SMILES.

Series [1] in a line: Intrinsic clearance in liver microsomes, mouse. It is filed as in vitro ADME. The method, then:
(§1) The in vitro intrinsic clearance (CLint) of VU0542270 was investigated in commercially obtained hepatic microsomes from rat, mouse, and human donors using the substrate depletion (i.e., loss-of-parent versus time, or t1/2 method) approach with analyte detection via LC-MS/MS. For each species, mean per cent parent remaining values at each time point were calculated from replicates raw data (analyte:IS peak area ratios) and used to determine in vitro t1/2 and CLint.
(§2) Experiments were carried out using a robot-assisted liquid handling system (TECAN model Evo 200). VU0542270 was incubated (1 µM final concentration) in buffer (100 mM potassium phosphate, pH 7.4, with 3 mM MgCl2) containing hepatic microsomes (0.5 mg/mL final concentration) from multiple species, discretely, at 37°C under constant orbital shaking. After 5 minutes (preincubation), reactions were initiated by the addition of NADPH (1 mM final concentration). At selected time intervals (0, 3, 7, 15, 25, and 45 minutes) post addition of NADPH, aliquots (50 µL) were taken and placed into a 96-shallow-well plate containing ice-cold acetonitrile (150 µL) with carbamazepine (IS, 50 nM). The plates were then centrifuged (3000 rcf at 4°C) for 10 minutes. […]
(§3) Predicted hepatic clearance (CLhep) was calculated using the following equation: [drawing 4] […]
In general terms: Liver microsomes are vesicles of endoplasmic reticulum, rich in cytochrome P450 enzymes.

Series [2] is described as follows: Brain homogenate binding by equilibrium dialysis, rat. It is filed as in vitro ADME. Particulars: read-out: Fu, brain (rat). The method, then: Determination of VU0542270 fu in […] from mouse and rat was conducted using the same methodology and procedure as described for plasma protein binding assay with the following modifications: 1) a final compound concentration of 1 μM was used, and 2) naïve rat brains were homogenized in DPBS (1:3 composition of brain:DPBS, w/w) using a Mini-Bead Beater machine to obtain brain homogenate.
The diluted fraction unbound (fu2) in brain was calculated as (analyte to IS MS peak area ratio from Trans-buffer side)/(analyte to IS MS peak area ratio from Cis-brain homogenate side). Undiluted fraction unbound for the brain was calculated using the following equation: [drawing 1]
Mean values for each species were calculated from three replicates.
On the technique in general: In equilibrium dialysis free small molecules cross a membrane that holds back macromolecules.

Series [3] can be described thus: Intrinsic clearance in liver microsomes, rat. It is filed as in vitro ADME. The method, then:
as §1, §2, §3

Series [4] concerns channels containing SUR1. Kind of series: Thallium flux, Kir6.1 or Kir6.2 co-expressed with SUR1 in transfected HEK-293 cells. To be noted: 3 µM, Fig. 4D. It is filed as cell-based. An excerpt: The pcDNA3.1-SUR2B plasmid was generously provided by Dr. Colin Nichols (Washington University). The pcDNA5/TO-Kir6.1 plasmid was synthesized by GenScript. Stably transfected tetracycline-regulated expression human embryonic kidney-293 (T-Rex-HEK293) cells expressing both plasmids were generated by cotransfecting cells with Lipofectamine LTX followed by antibiotic selection and clonal selection using the thallium flux assay described below. Monoclonal lines expressing robust pinacidil-activated thallium flux were selected for high KATP channel activity. T-Rex-HEK293 cells expressing Kir6.2/SUR1 were created as described previously ([Raphemot et al., 2014]). The cell culture media contained Dulbecco’s modified Eagle’s medium (Gibco, 11965-092) supplied with heat-inactivated FBS (bio-techne, Minneapolis, MN S11150H,10%), Blasticidine HCl (Gibco, A11139-03, 10 ug/mL), Penicillin-Streptomycin (Gibco, 15140-122, 2 mM), G418 Sulfate (CORNING, Corning, NY, 30-234-CR, 1 mg/mL), and Hygromycin B (Invitrogen, Carlsbad, CA, 10687-010, 250 ug/mL). […]
Quantitative thallium flux assays of Kir6.1/SUR2B activity were performed essentially as described previously for Kir6.2/SUR1 ([Raphemot et al., 2014]; [Kharade et al., 2019]). […] Dye-loaded cells were washed with assay buffer and transferred to a Panoptic Kinetic Imaging Plate Reader (Wavefront Bioscience, Franklin, TN). […]

Series [5] relates to nine other members of the Kir channel family. Kind of series: Thallium assays, panel of nine other members of the Kir channel family. In kind it is cell-based. Particulars: read-out: IC50 against panel of nine other Kir channel family members. As to the method: (§4) Quantitative thallium flux assays of Kir6.1/SUR2B activity were performed essentially as described previously for Kir6.2/SUR1 ([Raphemot et al., 2014]; [Kharade et al., 2019]). Stable T-Rex-HEK293-Kir6.1/SUR2B cells or transiently transfected HEK293T cells were plated in polyamine-coated, clear-bottomed, black-walled 384-well plates and were cultured (37°C/5% CO2) overnight in Dulbecco’s modified Eagle’s medium (Gibco, Carlsbad, CA, 11995-065) containing 10% FBS (2 mM Penicillin-Streptomycin). The following day, cells were washed with assay buffer (i.e., Hanks’ balanced salt solution/20 mM HEPES) and loaded for 1 hour with thallium sensor dye Brilliant Thallium (Ion Bioscience, San Marcos, TX) at room temperature. Dye-loaded cells were washed with assay buffer and transferred to a Panoptic Kinetic Imaging Plate Reader (Wavefront Bioscience, Franklin, TN). Control and test compound treatments were for 4 minutes prior to adding 0.5 mM chloride-free thallium stimulus buffer (Ion Bioscience) to initiate thallium flux. […] Selectivity assays against other Kir channels were performed essentially as described previously ([Kharade et al., 2018]; [McClenahan et al., 2022]).

The target of series [6] is T1, Kir2.2 (Homo sapiens, UniProt Q14500).
T1 construct: expressed in transfected cells
T1 sequence (Q14500 1-433): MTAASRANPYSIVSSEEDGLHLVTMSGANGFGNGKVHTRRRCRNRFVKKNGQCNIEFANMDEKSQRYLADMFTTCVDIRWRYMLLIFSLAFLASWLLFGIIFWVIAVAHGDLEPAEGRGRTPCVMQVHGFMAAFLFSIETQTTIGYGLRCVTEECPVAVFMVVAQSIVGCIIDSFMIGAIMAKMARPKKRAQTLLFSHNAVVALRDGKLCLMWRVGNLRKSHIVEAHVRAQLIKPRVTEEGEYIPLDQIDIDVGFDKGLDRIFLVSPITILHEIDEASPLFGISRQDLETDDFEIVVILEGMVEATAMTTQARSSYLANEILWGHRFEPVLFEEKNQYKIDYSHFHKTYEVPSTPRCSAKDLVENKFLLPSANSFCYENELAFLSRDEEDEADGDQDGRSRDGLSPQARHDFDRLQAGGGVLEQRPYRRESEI
Kind of series: Thallium flux selectivity assay Kir2.2. It is filed as cell-based. The method, then:
as §4

Setting [7] is: corrected to plasma unbound fraction.

On to `Cc1nc(-c2cccs2)sc1CNC(=O)Nc1cccs1` [VU0542270], for which the “Predicted CLhep,u (mouse)” value in series [1] (setting [7]) was 27 mL/min per kg. Moreover, the “Predicted CLhep (mouse)” value in series [1] (from microsomal CLint) is 88 mL/min per kg. Further, in series [2], the fraction unbound at 6 h, 1 µM worked out at 0.02. In addition, the “Predicted CLhep,u (rat)” value in series [3] (setting [7]) was 6.0 mL/min per kg. The “Predicted CLhep (rat)” value in series [3] (from microsomal CLint) is on record as 63 mL/min per kg. Besides, the “inhibition of channels containing SUR1” value in series [4] is “not channels containing SUR1”. Besides, the concentration for half-maximal inhibition (IC50) in series [5] and in series [6] was > 30 µM throughout.
